Experiments:
[1] = molecular target: D-apionate lactonase / D-apionolactonase (A6X3G3, "hypothetical" protein) (Brucella anthropi, UniProt A6X3G3)
[2] = molecular target: D-apiose dehydrogenase (B9JK80) (Martinezella rhizogenes, UniProt B9JK80); experiment: NADH formation, […] nm; type: biochemical; details: 1.5 mM NAD+; 50 mM Tris-HCl pH 8.5; 25 °C; furanose D-apiose
Chain of D-apiose dehydrogenase (B9JK80) (B9JK80 whole entry): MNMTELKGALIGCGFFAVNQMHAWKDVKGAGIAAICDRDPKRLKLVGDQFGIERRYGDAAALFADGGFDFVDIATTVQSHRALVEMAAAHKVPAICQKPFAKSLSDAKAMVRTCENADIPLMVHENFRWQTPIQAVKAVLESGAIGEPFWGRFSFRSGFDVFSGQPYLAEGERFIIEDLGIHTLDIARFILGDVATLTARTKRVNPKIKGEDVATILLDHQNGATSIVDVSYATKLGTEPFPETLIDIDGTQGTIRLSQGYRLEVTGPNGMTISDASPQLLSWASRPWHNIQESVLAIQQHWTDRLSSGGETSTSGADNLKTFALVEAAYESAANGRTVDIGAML

Chain of D-apionate lactonase / D-apionolactonase (A6X3G3, "hypothetical" protein) (A6X3G3 whole entry, looked up, one chain of several): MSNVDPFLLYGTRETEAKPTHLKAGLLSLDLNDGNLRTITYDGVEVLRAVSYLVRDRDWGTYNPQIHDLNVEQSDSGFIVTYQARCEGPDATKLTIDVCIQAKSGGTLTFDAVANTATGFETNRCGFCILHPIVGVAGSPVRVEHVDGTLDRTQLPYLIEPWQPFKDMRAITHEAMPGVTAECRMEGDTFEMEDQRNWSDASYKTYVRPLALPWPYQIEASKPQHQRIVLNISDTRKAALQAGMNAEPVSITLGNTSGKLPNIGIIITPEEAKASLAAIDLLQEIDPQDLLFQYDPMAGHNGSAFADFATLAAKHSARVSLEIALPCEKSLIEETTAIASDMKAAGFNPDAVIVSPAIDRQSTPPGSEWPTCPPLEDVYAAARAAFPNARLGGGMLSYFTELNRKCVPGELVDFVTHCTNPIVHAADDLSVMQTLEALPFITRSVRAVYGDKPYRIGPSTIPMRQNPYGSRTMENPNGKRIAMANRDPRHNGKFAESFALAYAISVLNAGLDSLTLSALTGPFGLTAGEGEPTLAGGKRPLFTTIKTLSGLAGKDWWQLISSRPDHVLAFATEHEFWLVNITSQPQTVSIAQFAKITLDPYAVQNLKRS

Structure (SMILES)	1H NMR, D-apionolactone generated in situ by B9JK80 [1]	KM [2]
O=C1OCC(O)(CO)[C@H]1O (stereo partly drawn) [D-apionolactone]	it hydrolyzed D-apionolactone to D-apionate	
O=C[C@H](O)C(O)(CO)CO [D-apiose]		(B9JK80) catalyzed oxidation of D-apiose to D-apionolactone using NAD^+

— article PMC6435334 (Nature chemical biology, 2018)
